From patent US20240067613A1, “NOVEL QUINAZOLINE DERIVATIVES AS SOS1 INHIBITORS AND USE THEREOF” (HANMI PHARMACEUTICAL CO., LTD., priority 2020, published 2024)
pIC50: −log10 of the molar value.

Target: T1, SOS1 binding to KRAS G12C (Homo sapiens, UniProt Q07889)
T1 construct: consisting of amino acid residues 564 to 1049 which are the catalytic domain; purchased Reaction Biology Corporation MSC-11-502 (SOS1-Strep); MSC-11-538 (KRAS G12C)
T1 sequence (Q07889 564-1049): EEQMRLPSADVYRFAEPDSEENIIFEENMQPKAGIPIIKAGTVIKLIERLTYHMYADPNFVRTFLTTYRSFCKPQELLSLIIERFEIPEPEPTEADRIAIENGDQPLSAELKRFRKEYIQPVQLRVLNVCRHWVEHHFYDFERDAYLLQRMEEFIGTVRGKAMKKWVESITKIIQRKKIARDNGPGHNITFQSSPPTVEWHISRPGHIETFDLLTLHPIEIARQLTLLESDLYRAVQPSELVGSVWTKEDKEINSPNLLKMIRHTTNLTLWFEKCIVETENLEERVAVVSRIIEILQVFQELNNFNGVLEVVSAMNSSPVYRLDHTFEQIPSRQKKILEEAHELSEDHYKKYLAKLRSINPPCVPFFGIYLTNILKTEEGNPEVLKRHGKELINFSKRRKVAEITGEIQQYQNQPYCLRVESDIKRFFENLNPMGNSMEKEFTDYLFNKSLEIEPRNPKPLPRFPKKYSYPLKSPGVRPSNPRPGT
Test: SOS1 GTP substitution inhibition test (HTRF/TR-FRET, KRAS G12C-SOS1 binding inhibitory ability)
Format: biochemical
Conditions: HTRF, GST-KRAS G12C (2-169), SOS1-Strep (564-1049), 1.6, 8, 40, 200, 1,000 nM
Procedure: In order to determine whether the substitution function of SOS1 binding to KRAS G12C is inhibited by the above-described example compounds, a homogeneous time-resolved fluorescence (HTRF) test was performed using G12C(#MSC-11-538) and SOS1-Strep(#MSC-11-502) purchased from Reaction Biology Corporation (MA, USA). The activity of SOS1 enzyme was determined by measuring the amount of GTP bound to KRAS G12C proteins, using the principle of time-resolved fluorescence energy transfer (TR-FRET). Based on the principle that terbium bound to the GST-binding antibody of the GST-KRAS G12C protein acts as a donor of fluorescence resonance energy transfer (FRET), and the GTP bound to the KRAS G12C protein is labeled with the fluorescent agent DY-647P1 and acts as a receiver, when the more GTP is bound to the KRAS G12C protein by the substitution reaction of SOS1 according to this test, the higher HTRF or FRET signal is measured. To summarize, glutathione S-transferase (GST)-tagged KRAS G12C proteins (consisting of amino acid residues 2 to 169) required for the reaction, streptavidin-tagged SOS1 proteins (consisting of amino acid residues 564 to 1049 which are the catalytic domain), anti-GST antibody (#61[…]) purchased from CISBIO corporation, nucleic acid (#NU-820-647P1) purchased from Jena Bioscience GmbH were mixed in a buffer solution formed from 10 mM HEPES pH7.4, 150 mM NaCl, 5 mM MgCl2, and 1 mM dithiothreitol (DTT), and the mixture was added to a 384-well plate and reacted at room temperature. Next, FRET signals were measured with a Perkin Elmer Envision microplate reader. In this case, an excitation signal (excitation) was measured at 320 nm, and an emission signal (emission) was measured at 615/665 nm. The fluorescence measurement value when the SOS1 protein was not included was calculated as a background signal value, and the background signal value was subtracted from all of the measured HTRF values. The fluorescence measurement value when the synthesized compound was not included was measured as a control value, and this value was selected as a reference point of 100%. For each of the example compounds, fluorescence was measured at concentrations of 1.6, 8, 40, 200, and 1,000 nM (5 points, 5-fold), and the 50% activity inhibition value (IC50) of each of the compounds was calculated using GraphPad Prism. When the IC50 value was 50 nM or less, the inhibitory ability was denoted as +++. When the IC50 value was more than 50 nM and 100 nM or less, the inhibitory ability was denoted as ++. When the IC50 value was more than 100 nM, the inhibitory ability was denoted as +.

Row | Structure (SMILES) | pIC50
1 | COc1cc2c(N[C@H](C)c3cc(N)cc(C(F)(F)F)c3)nc(C)nc2cc1C(=O)N1CCOCC1 [Example 1, (R)-(4-((1-(3-amino-5-(trifluoromethyl)phenyl)ethyl)amino)-6-methoxy-2-methylquinazoline-7-yl)(morpholino)methanone] | ≥ 7.30
2 | CNCc1ccccc1-c1csc(C(C)Nc2nc(C)nc3cc(C(=O)N4CCOCC4)c(OC)cc23)c1 (centres unmarked) [Example 2, (6-methoxy-2-methyl-4-((1-(4-(2-((methylamino)methyl)phenyl)thiophen-2-yl)ethyl)amino)quinazoline-7-yl)(morpholino)methanone] | 7.00 to 7.30
3 | COc1cc2c(N[C@H](C)c3cc(N)cc(C(F)(F)F)c3)nc(C)nc2cc1C(=O)N1C[C@@H](C)N[C@@H](C)C1 [Example 3, (4-(((R)-1-(3-amino-5-(trifluoromethyl)phenyl)ethyl)amino)-6-methoxy-2-methylquinazoline-7-yl)((3R, S)-3,5-dimethylpiperazin-1-yl)methanone] | < 7.00
4 | COc1cc2c(N[C@H](C)c3cc(N)cc(C(F)(F)F)c3)nc(C)nc2cc1C(=O)N1CCSCC1 [Example 4, (R)-(4-((1-(3-amino-5-(trifluoromethyl)phenyl)ethyl)amino)-6-methoxy-2-methylquinazoline-7-yl)(thiomorpholino)methanone] | 7.00 to 7.30
5 | COc1cc2c(N[C@H](C)c3cc(N)cc(C(F)(F)F)c3)nc(C)nc2cc1C(=O)N1CC2COCC2C1 (stereo partly drawn) [Example 5, (4-(((R)-1-(3-amino-5-(trifluoromethyl)phenyl)ethyl)amino)-6-methoxy-2-methylquinazoline-7-yl)(tetrahydro-1H-furo[3,4-c]pyrrol-5(3H)-yl)methanone] | < 7.00
6 | COc1cc2c(N[C@H](C)c3cccc(C(F)F)c3F)nc(C)nc2cc1C(=O)N1CCOCC1 [Example 6, (R)-(4-((1-(3-(difluoromethyl)-2-fluorophenyl)ethyl)amino)-6-methoxy-2-methylquinazoline-7-yl)(morpholino)methanone] | 7.00 to 7.30
7 | COc1cc2c(N[C@H](C)c3cc(N)cc(C(F)(F)F)c3)nc(C)nc2cc1C(=O)N1CCC1 [Example 7, (R)-(4-((1-(3-amino-5-(trifluoromethyl)phenyl)ethyl)amino)-6-methoxy-2-methylquinazoline-7-yl)(azetidine-1-yl)methanone] | < 7.00
8 | COc1cc2c(NC(C)c3cc(-c4cccc5c4CNCC5)cs3)nc(C)nc2cc1C(=O)N1CCOCC1 (centres unmarked) [Example 8, (6-methoxy-2-methyl-4-((1-(4-(1,2,3,4-tetrahydroisoquinolin-8-yl)thiophen-2-yl)ethyl)amino)quinazoline-7-yl)(morpholino)methanone] | < 7.00
9 | COc1cc2c(N[C@H](C)c3cc(N)cc(C(F)(F)F)c3)nc(C)nc2cc1C(=O)N1CCNCC1 [Example 9, (R)-(4-((1-(3-amino-5-(trifluoromethyl)phenyl)ethyl)amino)-6-methoxy-2-methylquinazoline-7-yl)(piperazine-1-yl)methanone] | ≥ 7.30
10 | COc1cc2c(N[C@H](C)c3cc(NC(=O)C(F)(F)F)cc(C(F)(F)F)c3)nc(C)nc2cc1C(=O)N1CCOCC1 [Example 10] | < 7.00
11 | COc1cc2c(N[C@H](C)c3cc(N)cc(C(F)(F)F)c3)nc(C)nc2cc1C(=O)N1CC(F)C1 [Example 11, (R)-(4-((1-(3-amino-5-(trifluoromethyl)phenyl)ethyl)amino)-6-methoxy-2-methylquinazoline-7-yl)(3-fluorazetidine-1-yl)methanone] | < 7.00
12 | COc1cc2c(NC(C)c3cc(-c4ccccc4CN(C)C)cs3)nc(C)nc2cc1C(=O)N1CCOCC1 (centres unmarked) [Example 12] | 7.00 to 7.30
13 | COc1cc2c(NC(C)c3cc(-c4ccccc4CN)cs3)nc(C)nc2cc1C(=O)N1CCOCC1 (centres unmarked) [Example 13] | 7.00 to 7.30
14 | COc1cc2c(NC(C)c3cc(-c4ccccc4CO)cs3)nc(C)nc2cc1C(=O)N1CCOCC1 (centres unmarked) [Example 14] | < 7.00
15 | COc1cc2c(N[C@H](C)c3cccc(C(F)(F)F)c3)nc(C)nc2cc1C(=O)N1CCOCC1 [Example 15, (R)-(6-methoxy-2-methyl-4-((1-(3-(trifluoromethyl)phenyl)ethyl)amino)quinazolin-7-yl)(morpholino)methanone] | < 7.00
16 | COc1cc2c(N[C@H](C)c3cc(N)cc(C(F)(F)F)c3C)nc(C)nc2cc1C(=O)N1CCOCC1 [Example 16, (R)-(4-((1-(5-amino-2-methyl-3-(trifluoromethyl)phenyl)ethyl)amino)-6-methoxy-2-methylquinazolin-7-yl)(morpholino)methanone] | 7.00 to 7.30
17 | COc1cc2c(N[C@H](C)c3cc(N)cc(F)c3)nc(C)nc2cc1C(=O)N1CCOCC1 [Example 17] | ≥ 7.30
18 | COc1cc2c(N[C@H](C)c3cc(N)cc(C(F)(F)F)c3)nc(C)nc2cc1C(=O)N1CCS(=O)(=O)CC1 [Example 18, (R)-(4-((1-(3-amino-5-(trifluoromethyl)phenyl)ethyl)amino)-6-methoxy-2-methylquinazolin-7-yl)(1,1-dioxothiomorpholino)methanone] | ≥ 7.30
19 | COc1cc2c(N[C@H](C)c3cccc(N)c3OC)nc(C)nc2cc1C(=O)N1CCOCC1 [Example 19, (R)-(4-((1-(3-amino-2-methoxyphenyl)ethyl)amino)-6-methoxy-2-methylquinazolin-7-yl)(morpholino)methanone] | < 7.00
20 | COc1cc2c(N[C@H](C)c3cc(N)cc(C(F)(F)F)c3)nc(C)nc2cc1C(=O)N1CCSC1 [Example 20, (R)-(4-((1-(3-amino-5-(trifluoromethyl)phenyl)ethyl)amino)-6-methoxy-2-methylquinazolin-7-yl)(thiazolidine-3-yl)methanone] | ≥ 7.30
21 | COc1cc2c(N[C@H](C)c3cc(C)cc(N)c3)nc(C)nc2cc1C(=O)N1CCOCC1 [Example 21, (R)-(4-((1-(3-amino-5-methylphenyl)ethyl)amino)-6-methoxy-2-methylquinazolin-7-yl)(morpholino)methanone] | 7.00 to 7.30
22 | COc1cc2c(N[C@H](C)c3cc(N)cc(C#N)c3)nc(C)nc2cc1C(=O)N1CCOCC1 [Example 22, (R)-3-amino-5-(1-((6-methoxy-2-methyl-7-(morpholine-4 carbonyl)quinazolin-4-yl)amino)ethyl)benzonitrile] | < 7.00
23 | COc1cc2c(N[C@H](C)c3cccc4c3CCC4)nc(C)nc2cc1C(=O)N1CCOCC1 [Example 23, (R)-(4-((1-(2,3-dihydro-1H-inden-4-yl)ethyl)amino)-6-methoxy-2-methylquinazolin-7-yl)(morpholino)methanone] | 7.00 to 7.30
24 | COc1cc2c(N[C@H](C)c3cc(N)cc(C4CC4)c3)nc(C)nc2cc1C(=O)N1CCOCC1 [Example 24, (R)-(4-((1-(3-amino-5-cyclopropylphenyl)ethyl)amino)-6-methoxy-2-methylquinazolin-7-yl)(morpholino)methanone] | 7.00 to 7.30
25 | COc1cc2c(N[C@H](C)c3cc(N)cc(C(F)(F)F)c3F)nc(C)nc2cc1C(=O)N1CCOCC1 [Example 25, (R)-(4-((1-(5-amino-2-fluoro-3-(trifluoromethyl)phenyl)ethyl)amino)-6-methoxy-2-methylquinazolin-7-yl)(morpholino)methanone] | ≥ 7.30
26 | COc1cc2c(N[C@H](C)c3cc(N)cc(C(F)F)c3F)nc(C)nc2cc1C(=O)N1CCOCC1 [Example 26, (R)-(4-((1-(5-amino-3-(difluoromethyl)-2-fluorophenyl)ethyl)amino)-6-methoxy 2-methylquinazolin-7-yl)(morpholino)methanone] | ≥ 7.30
